In one assay the target is Human DP-IV (Homo sapiens, UniProt P27487). In kind it is biochemical. The conditions noted are these: substrate Ala-Pro-AFC, fluorescence.
In another assay the test system is ZDF rat. Briefly: Effect of long-term inhibition of DP-IV in ZDF rat (four weeks dosing). In kind it is in vivo. The settings on record: male ZDF rats; for Glycaemia: day of development of significant hyperglycaemia: obese control hyperglycaemic at day 8. From the text: Control animals are given vehicle. A group of untreated lean rats is used as a comparison. Glycaemia, insulinaemia, body weight, food and water intake, and plasma triglyceride and free fatty acid levels are monitored throughout the study.

Counter-ions that a name gives are not always drawn.

Human DP-IV, sequence (P27487 whole entry): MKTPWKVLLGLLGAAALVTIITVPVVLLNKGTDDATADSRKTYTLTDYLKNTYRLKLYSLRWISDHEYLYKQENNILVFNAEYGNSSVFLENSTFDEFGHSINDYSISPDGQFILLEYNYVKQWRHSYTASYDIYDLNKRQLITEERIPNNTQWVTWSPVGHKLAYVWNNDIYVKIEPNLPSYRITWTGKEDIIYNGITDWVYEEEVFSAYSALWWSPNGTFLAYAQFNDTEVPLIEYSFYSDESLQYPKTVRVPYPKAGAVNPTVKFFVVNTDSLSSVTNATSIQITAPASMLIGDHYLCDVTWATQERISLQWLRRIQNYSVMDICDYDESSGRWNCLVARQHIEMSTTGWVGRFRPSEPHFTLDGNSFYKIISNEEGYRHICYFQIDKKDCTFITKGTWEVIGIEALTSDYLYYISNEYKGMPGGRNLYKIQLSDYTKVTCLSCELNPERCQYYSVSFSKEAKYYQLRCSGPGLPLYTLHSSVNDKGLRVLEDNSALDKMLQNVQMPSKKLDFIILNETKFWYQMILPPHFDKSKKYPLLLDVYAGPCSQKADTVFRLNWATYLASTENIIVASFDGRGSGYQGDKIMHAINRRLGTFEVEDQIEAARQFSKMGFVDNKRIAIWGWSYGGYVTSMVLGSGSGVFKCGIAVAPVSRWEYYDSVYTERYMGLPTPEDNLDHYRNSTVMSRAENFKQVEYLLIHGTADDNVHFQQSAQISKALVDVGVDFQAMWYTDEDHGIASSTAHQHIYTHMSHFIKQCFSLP
Description for Human DP-IV: The in vitro inhibitory action of the compounds is determined in a fluorimetric assay. Human DP-IV is incubated with a standard substrate, Ala-Pro-AFC, in the presence of various concentrations of the inhibitor. The reaction is monitored by measuring the increase in fluorescence due to the reaction product, AFC. Using standard manipulations, an inhibitory constant, Ki, is determined.

As to `N#C[C@@H]1CCCN1C(=O)[C@@H](N)CCCNC(=O)c1cnccn1` [Example 1B, (2S)-1-((2′S)-2′-amino-5′-pyrazinecarbonylaminopentanoyl)pyrrolidine-2-carbonitrile trifluoroacetate], the Ki at Human DP-IV is 0.4 nM.

For the compound `CC(C)(C)[C@H](N)C(=O)N1CCC[C@H]1C#N` [Example 1A, (2S)-1-((2′S)-2′-amino-3′,3′-dimethylbutanoyl)pyrrolidine-2-carbonitrile hydrochloride], the “Glycaemia: day of development of significant hyperglycaemia” value was found to be 15 days in the assay on ZDF rat (10 mg/kg p.o. once daily) and 24 days in the assay on ZDF rat (10 mg/kg p.o. twice daily). The “Insulinaemia: day on which peak insulin level is reached” value with ZDF rat (10 mg/kg p.o. once daily, obese control peak by day 8) came out at 11 days.

The record behind these values is patent US20040209891A1, “Treatment of type 2 diabetes with inhibitors of dipeptidyl peptidase IV” (priority 2001, published 2004).
